Assay type in all cases: biochemical
In assay [1] the target is T1, NEU4 (Homo sapiens, UniProt Q8WWR8).
T1 sequence (Q8WWR8 1-484): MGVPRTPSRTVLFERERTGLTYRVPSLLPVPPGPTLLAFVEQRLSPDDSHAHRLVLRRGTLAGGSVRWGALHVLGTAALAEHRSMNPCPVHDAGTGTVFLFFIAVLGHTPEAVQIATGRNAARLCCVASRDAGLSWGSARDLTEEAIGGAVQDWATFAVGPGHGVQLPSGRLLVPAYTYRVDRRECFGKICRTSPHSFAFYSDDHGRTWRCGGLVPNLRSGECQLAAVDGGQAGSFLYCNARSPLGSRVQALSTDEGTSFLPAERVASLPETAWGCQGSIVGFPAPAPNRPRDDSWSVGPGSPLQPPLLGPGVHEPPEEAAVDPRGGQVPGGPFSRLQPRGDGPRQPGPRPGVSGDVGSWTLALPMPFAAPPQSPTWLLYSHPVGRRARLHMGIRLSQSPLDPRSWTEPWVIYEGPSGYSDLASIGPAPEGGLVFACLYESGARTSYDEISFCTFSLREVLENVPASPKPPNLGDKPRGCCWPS
Kind of assay: IC50 inhibition assay using 4MU-NANA as the substrate, NEU4. Particulars: 4MU-NANA as the substrate; read-out: IC50 NEU4. On the set-up: GST; made in house; host or cells: E. coli.

Assay [2] has as its target T2, NEU3 (Homo sapiens, UniProt Q9UQ49).
T2 sequence (Q9UQ49 1-428): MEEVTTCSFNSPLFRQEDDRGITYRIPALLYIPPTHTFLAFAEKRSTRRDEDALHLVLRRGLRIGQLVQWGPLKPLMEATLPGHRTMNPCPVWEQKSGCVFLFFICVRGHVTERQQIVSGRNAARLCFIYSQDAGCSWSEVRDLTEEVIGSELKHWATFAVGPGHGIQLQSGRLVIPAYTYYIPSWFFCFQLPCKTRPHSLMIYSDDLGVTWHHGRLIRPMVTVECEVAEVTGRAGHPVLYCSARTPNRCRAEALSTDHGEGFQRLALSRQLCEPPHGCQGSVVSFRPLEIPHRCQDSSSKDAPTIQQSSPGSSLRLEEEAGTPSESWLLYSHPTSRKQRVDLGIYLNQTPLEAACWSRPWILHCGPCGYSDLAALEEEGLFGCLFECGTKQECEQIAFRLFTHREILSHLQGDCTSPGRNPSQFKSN
Kind of assay: IC50 inhibition assay using 4MU-NANA as the substrate, NEU3. On the set-up: MBP (N); made in house; host or cells: E. coli. To be noted: 4MU-NANA as the substrate; read-out: IC50 NEU3.

Assay [3] relates to NEU1, NEU2, NEU3, NEU4. Kind of assay: Isoenzyme specificity/selectivity from 4MU-NANA IC50 across the four human neuraminidases. Particulars: for Target: isoenzyme(s) the compound is specific for, dual (bispecific) when ratio of IC50 is about 3 or less.
For assay [4], the target named is T3, NEU1 (Homo sapiens, UniProt Q99519).
T3 construct: made in house; host or cells: HEK293 (lentiviral transduction), crude lysate
Kind of assay: IC50 inhibition assay using 4MU-NANA as the substrate, NEU1. To be noted: 4MU-NANA as the substrate; read-out: IC50 NEU1. On the procedure: Two weeks after transduction cells were harvested and a crude lysate showing ˜200 nmol/h mg of sialidase activity used in experiments.
Assays were performed with duplicates for each point and IC50 was obtained by plotting the data with Graphpad™ Prism 5.0.

SMILES strings stand for the structures. Some results are limits rather than exact numbers.

As for `CC(C)CC(=O)N[C@H]1[C@H]([C@H](O)[C@H](O)CO)OC(C(=O)O)=C[C@@H]1O` [compound 35, 5-(3-methylbutanamido)-2,6-anhydro-3,5-dideoxy-D-glycero-D-galacto-non-2-enonic acid], the IC50 in assay [1] is > 500 µM; in assay [2], > 500 µM; in assay [4], 32 ± 5 µM. Besides, the Target entry in assay [3] is “NEU1/ NEU2”.
For `CCC(=O)N[C@H]1[C@H]([C@H](O)[C@H](O)CO)OC(C(=O)O)=C[C@@H]1O` [compound 29, 5-Propionamido-2,6-anhydro-3,5-dideoxy-D-glycero-D-galacto-non-2-enonic acid], the IC50 came out at 87 ± 18 µM in assay [1], 60 ± 7 µM in assay [2] and 18 ± 1 µM in assay [4]. For the same compound, the Target result in assay [3] is “NEU1”.
On the same counts, the results for `COc1ccc(-c2cn(C[C@@H](O)[C@@H](O)[C@@H]3OC(C(=O)O)=C[C@H](O)[C@H]3NC(C)=O)nn2)cc1` [7e, 5-Acetamido-(4-methoxyphenyl)-2,6-anhydro-3,5-dideoxy-b-glycero-D-galacto-non-2-enonic acid] are 2.6 ± 0.3 µM, 5.9 ± 0.4 µM, 47 ± 6 µM and “NEU3/ NEU4”.
Consider `CC(=O)N[C@@H]1C(O)C=C(C(=O)O)OC1C(O)C(O)Cn1cc(CNC(=O)c2ccccc2)nn1` (stereo partly shown) [compound 26], for which the IC50 is 1.1 ± 0.2 µM in assay [1], 15 ± 1 µM in assay [2] and > 500 µM in assay [4]. Moreover, the Target result in assay [3] is listed as “NEU4”.
As to `CCCC(=O)N[C@@H]1C(O)C=C(C(=O)O)OC1C(O)C(O)CO` (stereo partly shown) [compound 30, 5-Butyramido-2,6-anhydro-3,5-dideoxy-n-glycero-n-galacto-non-2-enonic acid], the IC50 in assay [1] turned out to be 8.4 ± 0.4 µM; in assay [2] it was 15 ± 2 µM; in assay [4] it was 8.4 ± 0.5 µM. In addition, the Target entry in assay [3] is “NEU1/ NEU4”.
On the same counts, the results for `CC(=O)N[C@H]1[C@H]([C@H](O)[C@H](O)Cn2cc(-c3ccc(N(C)C)cc3)nn2)OC(C(=O)O)=C[C@@H]1O` [7a] are 28 ± 3 µM, 9.3 ± 0.8 µM, 190 ± 40 µM and “NEU3/ NEU4”.
On the same counts, the results for `CC(=O)N[C@@H]1C(O)C=C(C(=O)O)OC1C(O)C(O)Cn1cc(-c2ccc(C(=O)O)cc2)nn1` (stereo partly shown) [7h] are 3 ± 0.3 µM, 1.1 ± 0.1 µM, 240 ± 90 µM and “NEU3/ NEU4”.
As for `CCCCCC(=O)NC[C@@H](O)[C@@H](O)[C@@H]1OC(C(=O)O)=C[C@H](O)[C@H]1NC(=O)CC` [compound 66, 5-Propionamido-9-hexanamido-2,6-anhydro-3,5-dideoxy-D-glycero-D-galacto-non-2-enonic acid], the IC50 in assay [1] was found to be 210 ± 90 µM; in assay [2], 260 ± 70 µM; in assay [4] it was 1.4 ± 0.2 µM. For the same compound, in assay [3], the Target entry is on record as “NEU1”.
With `O=C(O)C1=C[C@H](O)[C@@H](NC(=O)c2ccccc2)[C@H]([C@H](O)[C@H](O)CO)O1` [compound 39, 5-Benzamido-2,6-anhydro-3,5-dideoxy-D-glycero-D-galacto-non-2-enonic acid], the IC50 was > 500 µM in assay [1], 480 ± 100 µM in assay [2] and 11 ± 1 µM in assay [4]. Moreover, in assay [3], the Target entry is “NEU1”.
On the same counts, the results for `CC(=O)Nc1ccc(C(=O)NC[C@@H](O)[C@@H](O)[C@@H]2OC(C(=O)O)=C[C@H](O)[C@H]2NC(C)=O)cc1` [compound 58, 5-Acetamido-9-(4-acetamido)benzamido-2,6-anhydro-3,5-dideoxy-d-glycero-d-galacto-non-2-enonic acid] are 24 ± 6 µM, 7.2 ± 1.2 µM, 1.9 ± 0.4 µM and “NEU1”.
The like results for `CC(=O)Nc1ccc(-c2cn(CC(=O)N[C@@H]3C(O)C=C(C(=O)O)OC3C(O)C(O)CO)nn2)cc1` (stereo partly shown) [compound 48] were, in that order, > 500 µM, > 500 µM, > 500 µM and “NEU2”.
On the same counts, the results for `CC(C)CCC(=O)N[C@H]1[C@H]([C@H](O)[C@H](O)CO)OC(C(=O)O)=C[C@@H]1O` [compound 36, 5-(4-Methylpentanamido)-2,6-anhydro-3,5-dideoxy-D-glycero-D-galacto-non-2-enonic acid] are 370 ± 160 µM, 150 ± 20 µM, 1.7 ± 0.1 µM and “NEU1”.
Turning to `CC(=O)N[C@H]1[C@H]([C@H](O)[C@H](O)Cn2cc(-c3ccc(C(F)(F)F)cc3)nn2)OC(C(=O)O)=C[C@@H]1O` [7g], the IC50 in assay [1] came out at 5 ± 0.9 µM; in assay [2], 3.3 ± 0.5 µM; in assay [4], 140 ± 30 µM. For the same compound, the Target entry in assay [3] is recorded as “NEU3/ NEU4”.
On the same counts, the results for `CCCCCCC(=O)N[C@H]1[C@H]([C@H](O)[C@H](O)CO)OC(C(=O)O)=C[C@@H]1O` [compound 33, 5-Heptanamido-2,6-anhydro-3,5-dideoxy-D-glycero-D-galacto-non-2-enonic acid] are 470 ± 200 µM, 210 ± 70 µM, 2.1 ± 0.2 µM and “NEU1”.
On the same counts, the results for `CN(C)c1ccc(-c2cn(CC(=O)N[C@@H]3C(O)C=C(C(=O)O)OC3C(O)C(O)CO)nn2)cc1` (stereo partly drawn) [compound 47, 5-(2-(4-(4-(dimethylamino)phenyl-1H-1,2,3-triazol-1-yl)acetamido))-2,3,5-trideoxy-D-glycero-D-galacto-2-nonulopyranosonic acid] are 36 ± 5 µM, 46 ± 7 µM, 110 ± 10 µM and “NEU1/ NEU2/ NEU3/ NEU4”.
Consider `O=C(Cn1cc(-c2ccc(C(F)(F)F)cc2)nn1)N[C@@H]1C(O)C=C(C(=O)O)OC1C(O)C(O)CO` (stereo partly shown) [compound 41], for which the IC50 in assay [1] was 300 ± 60 µM; in assay [2] it was > 500 µM; in assay [4], > 500 µM. Besides, in assay [3], the Target entry is “NEU2”.
For the compound `COc1ccc(-c2cn(CC(=O)N[C@@H]3C(O)C=C(C(=O)O)OC3C(O)C(O)CO)nn2)cc1` (stereo partly shown) [compound 44], the half-inhibitory concentration (IC50) was 87 ± 14 µM in assay [1], > 500 µM in assay [2] and > 500 µM in assay [4]. In addition, the Target result in assay [3] is “NEU2”.
`O=C(O)C1=C[C@H](O)[C@@H](NC(=O)C2CCC2)[C@H]([C@H](O)[C@H](O)CO)O1` [compound 38, 5-Cyclobutanecarboxamido-2,6-anhydro-3,5-dideoxy-D-glycero-D-galacto-non-2-enonic acid]: the IC50 in assay [1] came out at 81 ± 15 µM; in assay [2] it was 100 ± 20 µM; in assay [4] it was 12 ± 2 µM. Also, the Target entry in assay [3] is given as “NEU1”.
Consider `CC(=O)N[C@H]1[C@H]([C@H](O)[C@H](O)Cn2cc(-c3ccc(F)cc3)nn2)OC(C(=O)O)=C[C@@H]1O` [7f], for which the IC50 in assay [1] came out at 1.3 ± 0.2 µM; in assay [2], 17 ± 2 µM; in assay [4] it was 100 ± 40 µM. The compound further displayed a Selectivity in assay [3] (from 4MU-NANA IC50, for the isoenzyme(s) in column Target) of 10. The Target entry in assay [3] is listed as “NEU4”.
Regarding `O=C(O)C1=C[C@H](O)[C@@H](NC(=O)C2CC2)[C@H]([C@H](O)[C@H](O)CO)O1` [compound 37, 5-Cyclopropanecarboxamido-2,6-anhydro-3,5-dideoxy-D-glycero-D-galacto-non-2-enonic acid], the IC50 in assay [1] came out at 150 ± 40 µM; in assay [2], 170 ± 40 µM; in assay [4], 6.9 ± 0.4 µM. In addition, the Target entry in assay [3] is reported as “NEU1”.
Take `CCCCC(=O)NC[C@@H](O)[C@@H](O)[C@@H]1OC(C(=O)O)=C[C@H](O)[C@H]1NC(=O)CC` [compound 65, 5-Propionamido-9-pentanamido-2,6-anhydro-3,5-dideoxy-D-glycero-D-galacto-non-2-enonic acid]: the half-maximal inhibitory concentration (IC50) in assay [1] was 190 ± 70 µM; in assay [2] it was > 500 µM; in assay [4], 1.6 ± 0.2 µM. Also, in assay [3], the Target entry was “NEU1”.

The record behind these values is US11773129B2, “Methods of preventing or treating atherosclerosis with inhibitors of specific isoenzymes of human neuraminidase” (THE GOVERNORS OF THE UNIVERSITY OF ALBERTA, priority 2017, dated 2023).
